The conditions of data set [1]: administered orally; cited from earlier work.
In the next data set the test system is mice. As to the kind of experiment: Phase 1 maximum tolerated dose (MTD) determination in mice. As to conditions: male mice; oral gavage; 1,000 mg/kg. It counts as in vivo. As to the method: (§1) Male mice were randomized and assessed in two phases: 1) for maximum tolerated doses (MTDs) of PrC-210, DzCH2SH, and 2Pip-2PrSH to determine dose levels for the efficacy study and 2) to evaluate the efficacy of the compounds when administered 60±5 minutes prior to exposure to total body irradiation (TBI) at an LD100/30 dose (990 cGy) (Tables 1 and 2).
(§2) For Phase 1 or 2, sterile water (vehicle), PrC-210, DzCH2SH, and 2Pip2PrSH were administered at 10 mL/kg calculated based on the most recent body weight via oral gavage. Animals were not fasted prior to administration of the compounds or vehicle. Mice in Phase 1 were administered the dose on Day 1 and mice in Phase 2 were administered the dose 60±5 minutes prior to TBI on Day 0.
(§3) All surviving animals were observed once daily for clinical signs (e.g., unusually low or high activity, lethargy, shivering, appearance of fur, bloody and water stool, and other symptoms of moribundity) at 1-2 hours post-irradiation and/or post-dose and once daily on non-dosing days until Day 4 (Phase 1) or Day 30 (Phase 2).
In Phase 1 (Table 1), all animals were normal when observed and all body weights were within normal range. The dose level of 1000 mg/kg was selected for Phase 2.

Data set [2] concerns mice exposed to total body irradiation (TBI). Briefly: Phase 2 efficacy: survival of mice dosed before total body irradiation (TBI) at LD100/30. It counts as in vivo. As to conditions: for Survival: Day 30, 11 animals; for Survival / median survival time: male mice, 1000 mg/kg oral gavage 60±5 min before TBI 9.9 Gy (LD100/30); for body weight gain on Days 5 to 9: compared to the vehicle group (Group 13); for number of animals survived until scheduled sacrifice (Day 30) / number of mice found dead / number of mice moribund sacrificed: of 11 mice. The protocol:
as §1, §2
Irradiation was administered once to the whole body. TBI of mice were performed using a 6 MV LINAC photon source (TrueBeam STx source). Animals were irradiated at a dose rate of up to 80 cGy/min to the midline of the animals. The source irradiated animals to 50% of the dose from anterior-posterior direction and […] from the posterior-anterior direction. Dose measurements were performed with a PTW 31010 0.1 cc Semiflex Ion chamber.
as §3
In Phase 2 (Table 2), survival curves of mice treated with vehicle, PrC-210, DzCH2SH or 2Pip-PrSH prior to TBI with 9.9 Gy were measured (FIG. 1). […] Five mice were moribund sacrificed, and 6 mice were found dead. Survival in the Group 13 animals was 0% and median survival time was 8 days. In mice administered with PrC-210 before TBI (Group 14), 4 animals survived until scheduled sacrifice (Day 30) while 7 mice were moribund sacrificed. […] In mice administered with DzCH2SH before TBI (Group 15), 3 animals survived until scheduled sacrifice (Day 30) while 7 mice were moribund sacrificed, and one mouse was found dead. […] Five mice were moribund sacrificed and six mice were found dead. Survival in the Group 16 mice was 0% and median survival time was 10 days.

Data set [3] can be described thus: Hygroscopicity on 10 minute exposure to the atmosphere. It counts as physicochemical. The conditions noted are these: 10 minute exposure of a small amount to the atmosphere; diHCl salt. As to the method:
In Reaction E: 48 ml of HCl in methanol, 6 eq. (1.25 M solution, Aldrich #17935) was added to a solution of compound V, 3.5 g, 0.010 moles dissolved in 10 ml dry methanol in a flask under argon and equipped for magnetic stirring and the reaction was stirred at room temperature for 24 hours. […] The solution was degassed by gently bubbling argon into the solution for 30 minutes. Concentration (rotary evaporator at ambient temperature) provided a crude oily residue which was triturated with hexane producing a white solid. The hexane was removed (via pipette suction) and replaced with dry THF (25 ml). After an additional 10 minutes of trituration, the THF was removed and replaced with dry hexane (25 ml). After an additional 10 minutes of trituration, the hexane was removed and the resulting white solid was dried in vacuo over P2O5 providing 1.95 grams of diHCl salt of PrC-210 (88%). […]
In Reaction P: Compound XVI, 2.2 grams, 0.0058 moles was placed in a round-bottom flask equipped for magnetic stirring followed by 15 mL anhydrous trifluoroacetic acid (CF3COOH, Aldrich #8.08260). The flask was fitted with a condenser and the solution was refluxed for 5 hours whereupon it was determined that the reaction was complete using TLC by observing the disappearance of starting material and the appearance of a highly polar product, which stained positive with ninhydrin. […]

Setting [4] is: 1000 mg/kg oral gavage before TBI 9.9 Gy.
Setting [5] is: after 1000 mg/kg oral gavage and TBI 9.9 Gy, 11 per group.
Setting [6] is: after 1000 mg/kg oral gavage and TBI 9.9 Gy.

This is an account of results in patent US20230174562A1, “RADIO-AND CHEMO-PROTECTIVE COMPOUNDS” (TONIX PHARMACEUTICALS, INC., priority 2020, published 2023).

`NCCCNCCSP(=O)(O)O` [Amifostine, amifostine]: the “efficacy as a radioprotector” value in data set [1] was “lacks efficacy”.

With `CC(C)(S)C1CNCCN1` (stereo not shown) [Compound 2Pip-2PrSH, 2-(piperazin-2-yl)propane-2-thiol], the “toxicity at the highest tested dose” value with mice is given as “did not produce any toxicity”. In data set [2] (setting [4]), the “survival compared to vehicle (Group 13) by Chi-square test” value is listed as “not statistically significantly different”, the “survival compared to vehicle (Group 13) by Log-rank (Mantel-Cox) test” value was “statistically significantly higher”, the “number of animals survived until scheduled sacrifice (Day 30)” value is on record as “no animals survived” and the “number of mice found dead” value was “six”. Also, in data set [2] (setting [4]), the “number of mice moribund sacrificed” value is “Five”. In data set [2], this compound returned a Survival of 0% and a median survival time of 10 days. Further, in data set [2] (setting [5]), the “number of animals with cold to touch skin” value is reported as 4, the “number of animals with eye discharge” value was “one”, the “number of animals with hypoactivity” value is given as 5 and the “number of animals with swollen eye” value is listed as “one”. In data set [2] (setting [5]), the “number of mice with lethargy” value is “one” and the “number of mice with swollen head” value is “one”. Also, the “body weight gain on Days 5 to 9” value in data set [2] (setting [6]) is reported as “did not gain body weights”.

`SCC1CNCCNC1` [Compound 22, (1,4-diazepan-6-yl)methanethiol]: in the data set with mice, the “toxicity at the highest tested dose” value is listed as “did not produce any toxicity”. Also, in data set [2] (1000 mg/kg oral gavage before TBI), the “mortality rate at 8-days post-irradiation” value was “efficacious effects”. In data set [2] (setting [4]), the “survival compared to vehicle (Group 13) by Log-rank (Mantel-Cox) test” value is given as “statistically significantly higher”, the “number of animals survived until scheduled sacrifice (Day 30)” value is reported as 3, the “number of mice found dead” value was “one” and the “number of mice moribund sacrificed” value came to 7. In data set [2], this compound registered a Survival of 27.3% and a median survival time of 11 days. Further, in data set [2] (setting [5]), the “number of animals with cold to touch skin” value is on record as “one”, the “number of animals with eye cloudy” value came to 2, the “number of animals with eye discharge” value came out at 2 and the “number of animals with hypoactivity” value is given as 5. In data set [2] (setting [5]), the “number of animals with sunken eye” value was found to be 1, the “number of animals with swollen eye” value was determined as 2, the “number of mice with eye opacity” value is reported as “one” and the “number of mice with labored breathing” value is recorded as “one”. Also, in data set [2] (setting [5]), the “number of mice with lethargy” value was “one” and the “number of mice with swollen head” value is given as “one”. In addition, in data set [2] (setting [6]), the “body weight gain on Days 5 to 9” value is reported as “did not gain body weights”. For the same compound, the “survival of animals through 30 days post exposure” value in data set [2] (treated prior to total body irradiation (LD100/30)) was “increased survival”. In data set [3], the hygroscopicity entry is recorded as “did not show any signs of hygroscopicity”.
